Laboratory results published in patent US5342842A, “Pyrimidone derivatives and analogs in the treatment of asthma or certain skin disorders” (Pfizer Inc., priority 1992, dated 1994).

Experiments:
[1] = tested on: Eosinophil Migration into Sensitized Lung Tissue; assay: Inhibition of eosinophil migration into sensitized lung tissue challenged with antigen in guinea pigs (specific EPO response in lung lavage); assay type: in vivo, guinea pig; conditions: Cavia porcellus, po, P.O., guinea pigs sensitized with anti-OA IgG1, ovalbumin aerosol challenge, lavage after 18 hours
Experimental: Normal Hartley guinea pigs (300-350 grams) delivered from Charles River Laboratories were housed 5-7 days before sensitization. Guinea pigs were then sensitized with 0.5 mg/kg anti-OA IgG1 or saline as control. After 48-72 hours, guinea pigs were dosed P.O. in groups of six animals each with compounds at up to 32 mg/kg using 2% Tween 80 as vehicle. After 1-1.5 hours the animals were injected i.p. with 5 mg/kg pyrilamine. Thirty minutes following pyrilamine administration, animals were exposed to 10 minutes of a 0.1% ovalbumin (OA) aerosol followed by a 15 minute cloud decay period in a Tri-R Airborne Infection Apparatus (Compression air flow =20 L/min, main air flow =8.4 L/min). Guinea pigs were removed from the apparatus and caged for 18 hours prior to sacrifice and the following lung lavage procedure. […]
The aliquoted sample with Triton was diluted with 1 ml PBS/0.1% Triton buffer (pH 7.0). […] The O.D. of the mixture was measured at 490 nm, with background O.D. (blank tube) subtracted out.
Duplicate O.D. readings were averaged to obtain a single value for each animal. Average O.D. ± standard error is calculated using the six obtained values within each group of animals. Specific EPO response due to antigen challenge is calculated by: [formula] Percent inhibition of specific EPO response due to drug pretreatment is calculated by: [formula]

[2] = target: Pulmonary Phosphodiesterase (PDEIV); assay: Inhibition of pulmonary phosphodiesterase (PDEIV) from guinea pig lung, [3H]cAMP hydrolysis; assay type: biochemical; conditions: 1 μM [3H]-cAMP, 37° C., 10 minutes, 1% DMSO, read-out: IC50, concentration which inhibits 50% of specific hydrolysis of [3H]cAMP to [3H]5' AMP
Experimental: Lung tissue from guinea pigs was placed in a homogenization buffer solution (20 mM Bistris, 5 mM 2-mercaptoethanol, 2 mM benzamidine, 2 mM EDTA, 50 mM sodium acetate, pH 6.5) at a concentration of 10 ml/gm of tissue. The tissue was homogenized using a Tekmar Tissumizer at full speed for 10 seconds. Phenylmethylsulfonyl fluoride (PMSF, 50 mM in 2-propanol) was added to the buffer immediately prior to homogenization to give a final PMSF concentration of 50μM. The homogenate was centrifuged at 12,000×g for 10 minutes at 4° C. The supernatant was filtered through gauze and glass wool and then applied to a 17×1.5 cm column of DEAE-Sepharose CL-6B, pre-equilibrated with homogenization buffer, at 4° C. A flow rate of 1 ml/min was used. After the supernatant had passed through the column, the column is washed with a volume of homogenization buffer at least two times that of the supernatant. […] Fractions were saved based on specific PDEIV activity, determined by [^3 H]cAMP hydrolysis and the ability of a […]. […]
The reaction tubes were shaken and placed in a water bath (37° C.) for 10 minutes, at which time the reaction was stopped by placing the tubes in a boiling water bath for 2 minutes. […] After vortexing, 1 ml of the elution was added to 3 ml Atomlight scintillation fluid in an appropriate vial, vortexed, and counted for [^3 H].
Percent inhibition is determined by the formula: [formula] […]

human PDE [3] = assay: Inhibition of PDE in intact human peripheral blood leukocyte preparation (human PDE assays, Dr. Hanifin); assay type: cell-based
Excerpt: (§1) See Grewe et al., J. Allergy Clin. Immunol., v. 70, pp. 452-457, 1982. […] Dr. Hanifin has a source of human PDE isolated from mononuclear leukocyte. They were approached and readily agreed to test 5-[3-(exo-bicyclo[2.2.1]hept-2-yloxy)-4-methoxyphenyl]-3,4,5,6-tetrahydropyrimidin-2(1H)-one in their human PDE assays (see Cooper et al., cited above).

[4] = tested on: antigen-induced skin edema; assay: Inhibition of skin edema in guinea pigs sensitized to ovalbumin; assay type: in vivo, guinea pig; conditions: 32 mg/Kg oral
Experimental: Four guinea pigs (Hartley, male, 350-400 g) were sensitized with anti-ovalbumin IgG1 antibody. Two guinea pigs were orally dosed with 32 mg/Kg of the test compound and two other guinea pigs were dosed with vehicle (2% Tween-80). One-hour after dosing, each guinea pig was injected intraveneously with 1 ml of Evan Blue (7 mg/ml) and then his skin was challenged intradermally with 0.1 ml of ovalbumin (0.1%) or PBS. Twenty minutes after challenge, the skin was removed and skin edematous site (circular blue spots at challenge sites) was examined visually.

human PDE [5] = assay: Inhibition of PDE in leukocyte homogenate preparation (human PDE assays, Dr. Hanifin); assay type: biochemical
Excerpt: as §1

## COc1ccc(C2CNC(=O)NC2)cc1O[C@@H]1C[C@H]2CC[C@@H]1C2 (relative stereo) [5-[3-(exo-bicyclo[2.2.1]hept-2-yloxy)-4-methoxyphenyl]-3,4,5,6-tetrahydropyrimidin-2(1H)-one]
[1]
  ED50: 10 mg/kg
[2]
  IC50: 500 nM
Human PDE [3]; intact human peripheral blood leukocyte preparation, compared to Ro-20-1724
  potency in inhibiting PDE compared to Ro-20-1724: even greater potency than Ro-20-1724
Human PDE [3]; intact human peripheral blood leukocytes
  IC50: 300 nM
[4]; two guinea pigs, intradermal ovalbumin (0.1%), 20 minutes after challenge, visual examination
  intensity and area of blue spots at antigen-challenged skin sites as compared to vehicle-dosed animals: markedly reduced
[4]; conclusion of the test
  effectiveness against antigen-induced skin edema in guinea pigs: effective against antigen-induced skin edema in guinea pigs
Human PDE [5]; human leukocyte homogenate preparation
  IC50: 200 nM
Human PDE [5]; leukocyte homogenate preparation, compared to Ro-20-1724
  potency in inhibiting PDE compared to Ro-20-1724: even greater potency than Ro-20-1724
